Measured values taken from ChEMBL document CHEMBL4483862, “Open-source discovery of chemical leads for next-generation chemoprotective antimalarials” (2018).

Tested on: Plasmodium berghei
Assay: Luciferase/luciferin-expressing antifolate-resistant parasites were used to infect a culture of HepG2 cells that were pre-incubated with compounds. Infected hepatocytes emit light due to the luciferase reaction. Assay results are presented as the percent inhibition of light emission compared to control. […]
Type: functional
Details: sporozoite; for IC90: read-out: LUCIFERASE INFECTION ASSAY - IC90
[1] = read-out: LUCIFERASE INFECTION ASSAY - IC50

COc1ccc(-c2cnc3cnc(-c4cccc(C(=O)NCCO)c4)cn23)cc1
IC50 (PBLUC_HILL_SLOPE 19.3, PBLUC_R_SQUARED 0.197, read-out: LUCIFERASE INFECTION ASSAY - IC50): 7.33 µM
IC90: 8.22 µM

CC(=O)NCc1ccc(C(=O)Nc2ccccc2O)cc1
IC50 (PBLUC_HILL_SLOPE 1.36, PBLUC_R_SQUARED 0.725, read-out: LUCIFERASE INFECTION ASSAY - IC50): 1.97 µM
IC90: 9.91 µM

CN(C)c1cccc(CNc2nccc3nc(-c4cccc(F)c4)[nH]c23)c1
IC50 (HEPG2TOX_HILL_SLOPE 3.96, HEPG2TOX_R_SQUARED 0.788, PBLUC_HILL_SLOPE 4.1, PBLUC_R_SQUARED 0.415, read-out: LUCIFERASE INFECTION ASSAY - IC50): 3.37 µM
IC90: 5.76 µM

O=C(Nc1ccc(Br)c(C(F)(F)F)c1)c1ccc(N2CCOCC2)nc1
IC50 (HEPG2TOX_HILL_SLOPE 0.861, HEPG2TOX_R_SQUARED 0.877, PBLUC_HILL_SLOPE 1.11, PBLUC_R_SQUARED 0.718, read-out: LUCIFERASE INFECTION ASSAY - IC50): 1.48 µM
IC90: > 10 µM

c1ccc(-c2cc3c(SCc4cscn4)ncnc3s2)cc1
IC50 (PBLUC_HILL_SLOPE 12.2, PBLUC_R_SQUARED 0.61, read-out: LUCIFERASE INFECTION ASSAY - IC50): 3.1 µM
IC90: 3.71 µM

O=C(C1CC1)N1CCc2sccc2C1c1ccc(Cl)cc1 (configuration not stated)
IC50 (PBLUC_HILL_SLOPE 3.12, PBLUC_R_SQUARED 0.0785, read-out: LUCIFERASE INFECTION ASSAY - IC50): 9.69 µM
IC90: > 10.4 µM

CC(C)(C)NC(=S)Nc1ccc(C(F)(F)F)cc1[N+](=O)[O-]
IC50 (PBLUC_HILL_SLOPE 10.5, PBLUC_R_SQUARED 0.215, read-out: LUCIFERASE INFECTION ASSAY - IC50): 9.08 µM
IC90: > 10.3 µM

O=[N+]([O-])c1cc(/C=C/c2nc3ccccc3s2)ccc1N1CCOCC1
IC50 (PBLUC_HILL_SLOPE 0.872, PBLUC_R_SQUARED 0.699, read-out: LUCIFERASE INFECTION ASSAY - IC50): 1.4 µM
IC90: > 10 µM

O=C(Nc1cccc(Cl)c1)Nc1ccc2nc(Cc3ccccc3)nn2c1
IC50 [1]: 2.79 µM
IC90: 3.2 µM

COc1ccc(NS(=O)(=O)c2cccc(C(=O)Nc3ncc(C)s3)c2)cc1Br
IC50 (HEPG2TOX_HILL_SLOPE 1.95, HEPG2TOX_R_SQUARED 0.754, PBLUC_HILL_SLOPE 9.08, 8.50, PBLUC_R_SQUARED 0.373, 0.408, read-out: LUCIFERASE INFECTION ASSAY - IC50): 5.79 µM
IC90: 4.59 µM

O=C(NCCO)c1cccc(-c2cn3c(-c4ccc(Cl)cc4)cnc3cn2)c1
IC50 (HEPG2TOX_HILL_SLOPE 8.8, HEPG2TOX_R_SQUARED 0.456, PBLUC_HILL_SLOPE 3.73, PBLUC_R_SQUARED 0.895, read-out: LUCIFERASE INFECTION ASSAY - IC50): 1.76 µM
IC90: 3.17 µM

NS(=O)(=O)c1ccc(CCNCC(=O)N2CCC(Cc3ccccc3)CC2)cc1
IC50 (HEPG2TOX_HILL_SLOPE 10, HEPG2TOX_R_SQUARED 0.966, PBLUC_HILL_SLOPE 4.42, PBLUC_R_SQUARED 0.274, read-out: LUCIFERASE INFECTION ASSAY - IC50): 7.8 µM
IC90: > 10 µM

O=C1C(=C2NN=NN2c2ccc(-c3ccccc3)cc2)C=Nc2ccccc21
IC50 (PBLUC_HILL_SLOPE 3.52, PBLUC_R_SQUARED 0.301, read-out: LUCIFERASE INFECTION ASSAY - IC50): 6.48 µM
IC90: > 9.03 µM

COc1ccc(Cl)cc1NC(=O)C(C)N1CCC(c2c[nH]c3ccccc23)CC1 (configuration not stated)
IC50 (FFLUC_HILL_SLOPE 15.4, FFLUC_R_SQUARED 0.69, PBLUC_HILL_SLOPE 100, PBLUC_R_SQUARED 0.101, read-out: LUCIFERASE INFECTION ASSAY - IC50): 4.73 µM
IC90: 4.83 µM

CN(C)c1nc(N)nc(COC(=O)c2cccc(Br)c2)n1
IC50 [1]: > 10 µM
IC90: > 10 µM

Cc1nc(C(C)(C)C)nc2sc(C(=O)NNC(=O)c3ccccn3)c(C)c12
IC50 [1]: 8.36 µM
IC90: > 10 µM

CC(C)(C)c1cc(NC(=O)Cn2cnc3scc(-c4ccccc4)c3c2=O)on1
IC50 (HEPG2TOX_HILL_SLOPE 6.06, HEPG2TOX_R_SQUARED 0.374, PBLUC_HILL_SLOPE 1.95, PBLUC_R_SQUARED 0.0898, read-out: LUCIFERASE INFECTION ASSAY - IC50): > 10 µM
IC90: > 10 µM

CSc1nnc(-c2ccc(C(C)(C)C)cc2)n1-c1ccc(Cl)cc1
IC50 (PBLUC_HILL_SLOPE 1.19, PBLUC_R_SQUARED 0.789, read-out: LUCIFERASE INFECTION ASSAY - IC50): > 9.22 µM
IC90: > 9.22 µM

OCc1ccc(-c2cnc3cnc(/C=C/c4ccccc4)cn23)cc1
IC50 (HEPG2TOX_HILL_SLOPE 0.99, HEPG2TOX_R_SQUARED 0.698, PBLUC_HILL_SLOPE 2.37, PBLUC_R_SQUARED 0.796, read-out: LUCIFERASE INFECTION ASSAY - IC50): 0.261 µM
IC90: 0.659 µM

Cn1c(-c2ccccc2)c(/C=N/Nc2ccnc3cc(Cl)ccc23)c2ccccc21
IC50 (HEPG2TOX_HILL_SLOPE 17.0, 5.95, HEPG2TOX_R_SQUARED 0.687, 0.986, PBLUC_HILL_SLOPE 1.29, PBLUC_R_SQUARED 0.592, read-out: LUCIFERASE INFECTION ASSAY - IC50): 1.17 µM
IC90: 6.47 µM

Cc1cc(C(=O)CN2C(=O)C(=O)N(Cc3ccccc3)C2=O)c(C)n1-c1ccc2c(c1)OCO2
IC50 (HEPG2TOX_HILL_SLOPE 8.65, HEPG2TOX_R_SQUARED 0.666, PBLUC_HILL_SLOPE 3.13, PBLUC_R_SQUARED 0.534, read-out: LUCIFERASE INFECTION ASSAY - IC50): 6.04 µM
IC90: > 10 µM

O=C(Nc1cc(Cl)sc1Cl)Oc1cccnc1
IC50 (PBLUC_HILL_SLOPE 2.49, PBLUC_R_SQUARED 0.591, read-out: LUCIFERASE INFECTION ASSAY - IC50): 4.41 µM
IC90: 10.6 µM

Cc1ccc(Nc2cc(-c3ccc(CC(C)C)cc3)ncn2)cc1NS(C)(=O)=O
IC50 (PBLUC_HILL_SLOPE 12.9, PBLUC_R_SQUARED 0.53, read-out: LUCIFERASE INFECTION ASSAY - IC50): 7.03 µM
IC90: > 8.04 µM

O=C(NC(=S)Nc1ccc(F)cc1)c1cnn2c(C(F)(F)F)cc(C(F)(F)F)nc12
IC50 [1]: > 7.31 µM
IC90: > 7.31 µM

CCCC1(CCC)NC(=O)N(CC(=O)/N=c2\sc3ccccc3n2C)C1=O
IC50 (HEPG2TOX_HILL_SLOPE 1.17, HEPG2TOX_R_SQUARED 0.854, PBLUC_HILL_SLOPE 1.78, PBLUC_R_SQUARED 0.281, read-out: LUCIFERASE INFECTION ASSAY - IC50): 4.54 µM
IC90: > 10 µM

CCOC(=O)/C(=C\c1cccc(Br)c1)C1=Nn2c(nnc2-c2ccc(OC)cc2)SC1
IC50 [1]: > 10 µM
IC90: > 10 µM

COCOc1ccc(-c2cc(-c3ccc(S(C)(=O)=O)cc3)cnc2N)cc1
IC50 (PBLUC_HILL_SLOPE 4.16, PBLUC_R_SQUARED 0.931, read-out: LUCIFERASE INFECTION ASSAY - IC50): 0.765 µM
IC90: 1.3 µM

O=C(Nc1ccc(Cl)c(C(F)(F)F)c1)c1[nH]nc2ccccc12
IC50 [1]: > 10 µM
IC90: > 10 µM

O=C(CN1CC=C(c2ccccc2)CC1)Nc1ccnn1C1CCCC1
IC50 (HEPG2TOX_HILL_SLOPE 1.62, HEPG2TOX_R_SQUARED 0.847, PBLUC_HILL_SLOPE 1.87, PBLUC_R_SQUARED 0.673, read-out: LUCIFERASE INFECTION ASSAY - IC50): 5.98 µM
IC90: > 10 µM

CC(C)(C)c1cccc(Nc2ncc(C(=O)c3ccccc3)[nH]2)c1
IC50 [1]: 8.64 µM
IC90: > 10.3 µM

CC(C)CC(=O)NC(=S)Nc1ccc(S(=O)(=O)N(C)Cc2ccccc2)cc1
IC50 (HEPG2TOX_HILL_SLOPE 1.27, HEPG2TOX_R_SQUARED 0.987, PBLUC_HILL_SLOPE 1.32, PBLUC_R_SQUARED 0.74, read-out: LUCIFERASE INFECTION ASSAY - IC50): 0.868 µM
IC90: 4.58 µM

CCCn1c(C)cc(C(=O)CN(C)S(=O)(=O)c2ccc(Cl)cc2)c1C
IC50 (HEPG2TOX_HILL_SLOPE 3.32, HEPG2TOX_R_SQUARED 0.751, PBLUC_HILL_SLOPE 15.5, PBLUC_R_SQUARED 0.301, read-out: LUCIFERASE INFECTION ASSAY - IC50): 9.26 µM
IC90: > 10 µM

COCC(C)n1c(C)cc(C(=O)COC(=O)c2cccn2C)c1C (configuration not stated)
IC50 [1]: 1.82 µM
IC90: 6.18 µM

COc1ccc(-c2csc3ncnc(NCC4(N5CCOCC5)CCCCC4)c23)cc1
IC50 (PBLUC_HILL_SLOPE 4.26, PBLUC_R_SQUARED 0.161, read-out: LUCIFERASE INFECTION ASSAY - IC50): 5.66 µM
IC90: 9.48 µM

OCc1ccc(-c2cnc3cnc(-c4cccc(F)c4)cn23)cc1
IC50 [1]: > 10.3 µM
IC90: > 10.3 µM

CCCNC(=O)c1c(NC(=O)c2cccc(C(F)(F)F)c2)nc2ccccn12
IC50 [1]: 0.399 µM
IC90: 0.786 µM

CN1CCN(c2ccc(NC(=O)c3cc4c(s3)-c3ccccc3CC4)cn2)CC1
IC50 (HEPG2TOX_HILL_SLOPE 13, HEPG2TOX_R_SQUARED 0.777, PBLUC_HILL_SLOPE 77.5, 23.4, PBLUC_R_SQUARED 0.0252, 0.733, read-out: LUCIFERASE INFECTION ASSAY - IC50): 7.13 µM
IC90: 7.61 µM

CC1CCCC(NC(=O)CNc2cc(C(F)(F)F)ccc2Oc2ccc(Br)cc2)C1C (configuration not stated)
IC50 [1]: > 10 µM
IC90: > 10 µM

Cc1ccc(C(=O)c2c3c4sc5ccccc5n4c(-c4ccc(C)cc4)nc-3[n+](-c3ccccc3)c2O)cc1
IC50 [1]: > 10 µM
IC90: > 10 µM

Cc1ccc(N/C=C(\C#N)S(=O)(=O)c2ccc(Cl)cc2)cc1
IC50 [1]: > 9.92 µM
IC90: > 9.92 µM

O=C(NC(=O)c1cc(Br)cc(Br)c1)Nc1cc(C(F)(F)F)cc(C(F)(F)F)c1
IC50 (HEPG2TOX_HILL_SLOPE 7.89, HEPG2TOX_R_SQUARED 0.4, PBLUC_HILL_SLOPE 3.95, PBLUC_R_SQUARED 0.259, read-out: LUCIFERASE INFECTION ASSAY - IC50): 3.04 µM
IC90: 5.3 µM
